One series concerns H460 cells. As to the kind of experiment: CCK8 cell viability and IC50 measurement, H460. Format: cell-based, Human. Particulars: H460, 25 μM, 48 h. As to the method: (§1) Human lung cancer cell line H460 and H1299, human liver normal cell line LO2 were bought from ATCC. DMEM or RPMI 1640 was used as the cell culture medium with 10% FBS and 1% penicillin/streptomycin. Cells were maintained in an incubator with 37°C humidified atmosphere and 5% CO2.
(§2) Cell viability and IC50 values were determined using the CCK8 assay kit. Cells were seeded at a density of 5 × 10^3 cells per well in a 96-well plate. After overnight adhesion, 25 μM of compounds or vehicle control DMSO which all dissolved in the culture medium were added to cells and cultured for 48 h or 72 h. CCK8 reagent, dissolved in the medium, was then added to cells and incubated for 1 h. The absorbance at 450 nm was measured using a microplate spectrophotometer (Thermo). Cell viability was calculated, with the untreated group taken as 100%. For IC50 values determination, different concentrations (0, 0.4 μM, 2 μM, 10 μM, 20 μM, 50 μM) of compounds were added to cells for 72 h. Subsequent CCK8 measurement allowed the calculation of inhibition percentage based on cell viability. The IC50 values were computed by the prism statistical software. The CCK-8 assay was conducted three times and the repetitions in each time were at least three. All the values were expressed as Mean ± SD, p < 0.05 was considered statistically significant.
(§3) In order to assess the potential cytotoxicity of the synthesized compounds, we selected two types of human non-small-cell lung cancer cell line, H460 and H1299. Cell viability and cytotoxicity were evaluated using the CCK8 assay ([Xu et al., 2018]). The cells were treated with 25 μM of compounds 5a-5s and 6a-6i for 48h and 72 h. […] In contrast, no compounds managed to reduce H1299 cell viability to less than 50%, yet compounds 5i, 5m, 6h and 6i achieved cell viability rates below 70%. […] It is worth noting that minimal effects on the cell viability of the normal cell line LO2 were observed when exposed to these compounds. Further, we determined the half-maximal inhibitory concentration (IC50) of selected compounds against H460 cells, the results of which were summarized in Table 3.
For `COc1c2n(cc(C(=O)Nc3cccc(-c4cn(-c5ccccc5C(F)(F)F)nn4)c3)c1=O)CC1OCC(C)N1C2=O` (centres unmarked) [Compound 5a], the Cell viability was 87.78%.

Take `CCc1ccccc1-n1cc(-c2cccc(NC(=O)c3cn4c(c(OC)c3=O)C(=O)N3C(C)COC3C4)c2)nn1` (centres unmarked) [Compound 5d]: the Cell viability came to 92.17%.

On to `COc1c2n(cc(C(=O)Nc3cccc(-c4cn(-c5cc(C(F)(F)F)cc(C(F)(F)F)c5)nn4)c3)c1=O)CC1OCC(C)N1C2=O` (centres unmarked) [Compound 5e], for which the Cell viability is on record as 101.34%.

As for `COc1c2n(cc(C(=O)Nc3cccc(-c4cn(-c5cccc(F)c5)nn4)c3)c1=O)CC1OCC(C)N1C2=O` (centres unmarked) [Compound 5f], the Cell viability came to 93.31%.

Consider `COc1ccccc1-n1cc(-c2cccc(NC(=O)c3cn4c(c(OC)c3=O)C(=O)N3C(C)COC3C4)c2)nn1` (centres unmarked) [Compound 5g], for which the Cell viability came out at 82.94%.

On to `COc1c2n(cc(C(=O)Nc3cccc(-c4cn(-c5cccc(C(F)(F)F)c5)nn4)c3)c1=O)CC1OCC(C)N1C2=O` (centres unmarked) [Compound 5h], for which the Cell viability is 97.75%.

Consider `COc1c2n(cc(C(=O)Nc3cccc(-c4cn(-c5ccc(C(F)(F)F)cc5)nn4)c3)c1=O)CC1OCC(C)N1C2=O` (centres unmarked) [Compound 5j], for which the Cell viability was found to be 100.66%.

Turning to `COc1c2n(cc(C(=O)Nc3cccc(-c4cn(-c5cc(C(F)(F)F)ccc5C(F)(F)F)nn4)c3)c1=O)CC1OCC(C)N1C2=O` (centres unmarked) [Compound 5k], the Cell viability came to 94.55%.

As for `COc1c2n(cc(C(=O)Nc3cccc(-c4cn(-c5c(C)cc(C)cc5C)nn4)c3)c1=O)CC1OCC(C)N1C2=O` (centres unmarked) [Compound 5l], the Cell viability is reported as 84.74%.

The series is the same for the next values; noted with them: H460, 25 μM, 72 h.
Take `COc1c2n(cc(C(=O)Nc3cccc(-c4cn(-c5ccccc5C(F)(F)F)nn4)c3)c1=O)CC1OCC(C)N1C2=O` (centres unmarked) [Compound 5a]: the Cell viability was found to be 65.75%.

Regarding `COc1c2n(cc(C(=O)Nc3cccc(-c4cn(-c5cc(C(F)(F)F)cc(C(F)(F)F)c5)nn4)c3)c1=O)CC1OCC(C)N1C2=O` (centres unmarked) [Compound 5e], the Cell viability came to 101.97%.

For `COc1c2n(cc(C(=O)Nc3cccc(-c4cn(-c5cccc(F)c5)nn4)c3)c1=O)CC1OCC(C)N1C2=O` (centres unmarked) [Compound 5f], the Cell viability stood at 100.16%.

`COc1ccccc1-n1cc(-c2cccc(NC(=O)c3cn4c(c(OC)c3=O)C(=O)N3C(C)COC3C4)c2)nn1` (centres unmarked) [Compound 5g]: the Cell viability was determined as 99.43%.

`COc1c2n(cc(C(=O)Nc3cccc(-c4cn(-c5cccc(C(F)(F)F)c5)nn4)c3)c1=O)CC1OCC(C)N1C2=O` (centres unmarked) [Compound 5h]: the Cell viability is 75.09%.

`COc1c2n(cc(C(=O)Nc3cccc(-c4cn(-c5ccc(C(F)(F)F)cc5)nn4)c3)c1=O)CC1OCC(C)N1C2=O` (centres unmarked) [Compound 5j]: the Cell viability was 111.72%.

Regarding `COc1c2n(cc(C(=O)Nc3cccc(-c4cn(-c5cc(C(F)(F)F)ccc5C(F)(F)F)nn4)c3)c1=O)CC1OCC(C)N1C2=O` (centres unmarked) [Compound 5k], the Cell viability was found to be 52.15%.

Take `COc1c2n(cc(C(=O)Nc3cccc(-c4cn(-c5c(C)cc(C)cc5C)nn4)c3)c1=O)CC1OCC(C)N1C2=O` (centres unmarked) [Compound 5l]: the Cell viability was found to be 98.25%.

Still in this series, the particulars now being: H460, 72-h treatment.
With `CCc1ccccc1-n1cc(-c2cccc(NC(=O)c3cn4c(c(OC)c3=O)C(=O)N3C(C)COC3C4)c2)nn1` (centres unmarked) [Compound 5d], the “cell proliferation inhibition rate” value is “exceed 50%”.

Still in this series, the particulars now being: H460, 72 h, CCK8.
Broadly, the IC50 is the concentration needed to halve the response being measured. High values mean weaker potency, low ones greater potency. With `COc1c2n(cc(C(=O)Nc3cccc(-c4cn(-c5ccccc5C(F)(F)F)nn4)c3)c1=O)CC1OCC(C)N1C2=O` (centres unmarked) [Compound 5a], half-maximal inhibition (IC50) required 31.8 ± 0.47 µM.

`CCc1ccccc1-n1cc(-c2cccc(NC(=O)c3cn4c(c(OC)c3=O)C(=O)N3C(C)COC3C4)c2)nn1` (centres unmarked) [Compound 5d] gave an IC50 of 12.7 ± 4.85 µM.

Consider `COc1c2n(cc(C(=O)Nc3cccc(-c4cn(-c5cc(C(F)(F)F)cc(C(F)(F)F)c5)nn4)c3)c1=O)CC1OCC(C)N1C2=O` (centres unmarked) [Compound 5e], for which the IC50 was greater than 100 µM.

Compound `COc1c2n(cc(C(=O)Nc3cccc(-c4cn(-c5cccc(C(F)(F)F)c5)nn4)c3)c1=O)CC1OCC(C)N1C2=O` (centres unmarked) [Compound 5h] gave an IC50 greater than 100 µM.

Regarding `COc1c2n(cc(C(=O)Nc3cccc(-c4cn(-c5cc(C(F)(F)F)ccc5C(F)(F)F)nn4)c3)c1=O)CC1OCC(C)N1C2=O` (centres unmarked) [Compound 5k], it took 36 ± 2.73 µM to reach half-maximal inhibition (IC50).

Another series relates to LO2 cells. Briefly: CCK8 cell viability, normal cell line LO2. Format: cell-based, Human. To be noted: LO2 normal liver cells, 25 μM, 72 h. On the procedure:
as §1, §2, §3
Take `COc1c2n(cc(C(=O)Nc3cccc(-c4cn(-c5ccccc5C(F)(F)F)nn4)c3)c1=O)CC1OCC(C)N1C2=O` (centres unmarked) [Compound 5a]: the Cell viability is 105.28%.

For the compound `CCc1ccccc1-n1cc(-c2cccc(NC(=O)c3cn4c(c(OC)c3=O)C(=O)N3C(C)COC3C4)c2)nn1` (centres unmarked) [Compound 5d], the Cell viability was determined as 127.81%.

On to `COc1c2n(cc(C(=O)Nc3cccc(-c4cn(-c5cc(C(F)(F)F)cc(C(F)(F)F)c5)nn4)c3)c1=O)CC1OCC(C)N1C2=O` (centres unmarked) [Compound 5e], for which the Cell viability amounted to 129.12%.

For the compound `COc1c2n(cc(C(=O)Nc3cccc(-c4cn(-c5cccc(F)c5)nn4)c3)c1=O)CC1OCC(C)N1C2=O` (centres unmarked) [Compound 5f], the Cell viability amounted to 130.35%.

In the case of `COc1ccccc1-n1cc(-c2cccc(NC(=O)c3cn4c(c(OC)c3=O)C(=O)N3C(C)COC3C4)c2)nn1` (centres unmarked) [Compound 5g], the Cell viability is 128.56%.

Turning to `COc1c2n(cc(C(=O)Nc3cccc(-c4cn(-c5cccc(C(F)(F)F)c5)nn4)c3)c1=O)CC1OCC(C)N1C2=O` (centres unmarked) [Compound 5h], the Cell viability is given as 101.34%.

As to `COc1c2n(cc(C(=O)Nc3cccc(-c4cn(-c5ccc(C(F)(F)F)cc5)nn4)c3)c1=O)CC1OCC(C)N1C2=O` (centres unmarked) [Compound 5j], the Cell viability is 108.63%.

Consider `COc1c2n(cc(C(=O)Nc3cccc(-c4cn(-c5cc(C(F)(F)F)ccc5C(F)(F)F)nn4)c3)c1=O)CC1OCC(C)N1C2=O` (centres unmarked) [Compound 5k], for which the Cell viability is given as 124.51%.

Regarding `COc1c2n(cc(C(=O)Nc3cccc(-c4cn(-c5c(C)cc(C)cc5C)nn4)c3)c1=O)CC1OCC(C)N1C2=O` (centres unmarked) [Compound 5l], the Cell viability was found to be 125.46%.

For the next series, the system named is H1299 cells. As to the kind of experiment: CCK8 cell viability, H1299. It counts as cell-based, Human. To be noted: H1299, 25 μM, 48 h. As to the method: as §1, §2, §3
With `COc1c2n(cc(C(=O)Nc3cccc(-c4cn(-c5ccccc5C(F)(F)F)nn4)c3)c1=O)CC1OCC(C)N1C2=O` (centres unmarked) [Compound 5a], the Cell viability was 121.35%.

With `CCc1ccccc1-n1cc(-c2cccc(NC(=O)c3cn4c(c(OC)c3=O)C(=O)N3C(C)COC3C4)c2)nn1` (centres unmarked) [Compound 5d], the Cell viability is given as 117.48%.

For the compound `COc1c2n(cc(C(=O)Nc3cccc(-c4cn(-c5cc(C(F)(F)F)cc(C(F)(F)F)c5)nn4)c3)c1=O)CC1OCC(C)N1C2=O` (centres unmarked) [Compound 5e], the Cell viability is listed as 103.75%.

As for `COc1c2n(cc(C(=O)Nc3cccc(-c4cn(-c5cccc(F)c5)nn4)c3)c1=O)CC1OCC(C)N1C2=O` (centres unmarked) [Compound 5f], the Cell viability turned out to be 114.19%.

Turning to `COc1ccccc1-n1cc(-c2cccc(NC(=O)c3cn4c(c(OC)c3=O)C(=O)N3C(C)COC3C4)c2)nn1` (centres unmarked) [Compound 5g], the Cell viability came out at 117.81%.

On to `COc1c2n(cc(C(=O)Nc3cccc(-c4cn(-c5cccc(C(F)(F)F)c5)nn4)c3)c1=O)CC1OCC(C)N1C2=O` (centres unmarked) [Compound 5h], for which the Cell viability stood at 114.98%.

On to `COc1c2n(cc(C(=O)Nc3cccc(-c4cn(-c5ccc(C(F)(F)F)cc5)nn4)c3)c1=O)CC1OCC(C)N1C2=O` (centres unmarked) [Compound 5j], for which the Cell viability is given as 96.98%.

For `COc1c2n(cc(C(=O)Nc3cccc(-c4cn(-c5cc(C(F)(F)F)ccc5C(F)(F)F)nn4)c3)c1=O)CC1OCC(C)N1C2=O` (centres unmarked) [Compound 5k], the Cell viability turned out to be 113.47%.

Regarding `COc1c2n(cc(C(=O)Nc3cccc(-c4cn(-c5c(C)cc(C)cc5C)nn4)c3)c1=O)CC1OCC(C)N1C2=O` (centres unmarked) [Compound 5l], the Cell viability amounted to 118.92%.

Staying with this series, now noted: H1299, 25 μM, 72 h.
For the compound `COc1c2n(cc(C(=O)Nc3cccc(-c4cn(-c5ccccc5C(F)(F)F)nn4)c3)c1=O)CC1OCC(C)N1C2=O` (centres unmarked) [Compound 5a], the Cell viability turned out to be 102.55%.

For `CCc1ccccc1-n1cc(-c2cccc(NC(=O)c3cn4c(c(OC)c3=O)C(=O)N3C(C)COC3C4)c2)nn1` (centres unmarked) [Compound 5d], the Cell viability is recorded as 99.81%.

Regarding `COc1c2n(cc(C(=O)Nc3cccc(-c4cn(-c5cc(C(F)(F)F)cc(C(F)(F)F)c5)nn4)c3)c1=O)CC1OCC(C)N1C2=O` (centres unmarked) [Compound 5e], the Cell viability came out at 99.34%.

As to `COc1c2n(cc(C(=O)Nc3cccc(-c4cn(-c5cccc(F)c5)nn4)c3)c1=O)CC1OCC(C)N1C2=O` (centres unmarked) [Compound 5f], the Cell viability is given as 100.41%.

For `COc1ccccc1-n1cc(-c2cccc(NC(=O)c3cn4c(c(OC)c3=O)C(=O)N3C(C)COC3C4)c2)nn1` (centres unmarked) [Compound 5g], the Cell viability came out at 103.45%.

With `COc1c2n(cc(C(=O)Nc3cccc(-c4cn(-c5cccc(C(F)(F)F)c5)nn4)c3)c1=O)CC1OCC(C)N1C2=O` (centres unmarked) [Compound 5h], the Cell viability stood at 93.73%.

Regarding `COc1c2n(cc(C(=O)Nc3cccc(-c4cn(-c5ccc(C(F)(F)F)cc5)nn4)c3)c1=O)CC1OCC(C)N1C2=O` (centres unmarked) [Compound 5j], the Cell viability came to 92.49%.

In the case of `COc1c2n(cc(C(=O)Nc3cccc(-c4cn(-c5cc(C(F)(F)F)ccc5C(F)(F)F)nn4)c3)c1=O)CC1OCC(C)N1C2=O` (centres unmarked) [Compound 5k], the Cell viability stood at 91.70%.

Turning to `COc1c2n(cc(C(=O)Nc3cccc(-c4cn(-c5c(C)cc(C)cc5C)nn4)c3)c1=O)CC1OCC(C)N1C2=O` (centres unmarked) [Compound 5l], the Cell viability came out at 91.44%.

The record behind these values is publication PMC10547880, “Synthesis and biological evaluation of novel 1,2,3-triazole hybrids of cabotegravir: identification of potent antitumor activity against lung cancer” (Frontiers in Pharmacology, 2023).
